These compounds were tested against T1, SIRT1 (Homo sapiens, UniProt Q96EB6) (assay: Trp mass spectrometry assay of SIRT1 activation). Conditions: Trp peptide Ac-R-H-K-K(Ac)-W-NH2 0.5 μM, 120 μM βNAD+, 10 nM SIRT1, 25 min, 25° C.
T1 sequence (Q96EB6 1-747): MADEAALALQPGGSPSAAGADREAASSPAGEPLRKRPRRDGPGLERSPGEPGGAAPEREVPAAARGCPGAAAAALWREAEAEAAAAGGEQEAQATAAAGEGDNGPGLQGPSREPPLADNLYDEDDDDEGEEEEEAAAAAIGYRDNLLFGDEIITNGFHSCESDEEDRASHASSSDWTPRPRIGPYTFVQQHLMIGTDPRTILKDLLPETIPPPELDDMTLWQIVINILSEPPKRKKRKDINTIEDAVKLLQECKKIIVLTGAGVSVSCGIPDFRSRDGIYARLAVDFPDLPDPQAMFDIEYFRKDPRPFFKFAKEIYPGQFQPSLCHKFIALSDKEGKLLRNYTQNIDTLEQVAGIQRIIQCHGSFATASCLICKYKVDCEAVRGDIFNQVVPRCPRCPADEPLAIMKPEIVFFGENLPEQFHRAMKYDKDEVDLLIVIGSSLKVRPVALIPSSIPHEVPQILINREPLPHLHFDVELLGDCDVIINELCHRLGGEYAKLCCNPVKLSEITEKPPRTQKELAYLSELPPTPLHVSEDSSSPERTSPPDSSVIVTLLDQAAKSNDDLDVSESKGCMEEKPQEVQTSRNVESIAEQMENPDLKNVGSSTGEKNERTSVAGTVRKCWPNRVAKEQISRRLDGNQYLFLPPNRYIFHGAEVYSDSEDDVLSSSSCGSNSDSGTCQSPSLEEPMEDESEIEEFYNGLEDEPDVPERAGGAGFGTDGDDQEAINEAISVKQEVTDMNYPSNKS
Type: biochemical
In the case of O=C(Nc1cncc(OC[C@H](O)CO)n1)N1c2nc(-c3cccc(C(F)(F)F)c3)ncc2N2CC[C@H]1C2 [Example 37, (8S)—N-(6-((R)-2,3-dihydroxypropoxy)pyrazin-2-yl)-2-(3-(trifluoromethyl)phenyl)-7,8-dihydro-5,8-methanopyrimido[4,5-b][1,4]diazepine-9(6H)-carboxamide], the “TRP Activity (EC1.5, concentration of compound required to increase SIRT1 activity by 50% over control)” value is reported as “B (EC1.5 1-25 μM)” and the “TRP MAX RESP (percent maximum fold activation relative to control)” value is reported as “A (Fold activation ≥150%)”. With Cc1ccc2c(NC(=O)N3c4nc(C(=O)N[C@H](C)C(F)(F)F)nc(C)c4N4CC[C@H]3C4)n[nH]c2n1 [Example 60, (8S)-4-methyl-N9-(6-methyl-1H-pyrazolo[3,4-b]pyridin-3-yl)-N2-((R)-1,1,1-trifluoropropan-2-yl)-7,8-dihydro-5,8-methanopyrimido[4,5-b][1,4]diazepine-2,9(6H)-dicarboxamide] the “TRP Activity (EC1.5, concentration of compound required to increase SIRT1 activity by 50% over control)” value was “B (EC1.5 1-25 μM)” and the “TRP MAX RESP (percent maximum fold activation relative to control)” value was “A (Fold activation ≥150%)”. With C[C@@H](NC(=O)c1ncc2c(n1)N(C(=O)Nc1cc(OC[C@H](O)CO)ncn1)[C@H]1CCCN2C1)C(F)(F)F [Example 77, (9S)—N10-(6-((R)-2,3-dihydroxypropoxy)pyrimidin-4-yl)-N2-((R)-1,1,1-trifluoropropan-2-yl)-8,9-dihydro-6H-5,9-methanopyrimido[4,5-b][1,4]diazocine-2,10(7H)-dicarboxamide] the “TRP Activity (EC1.5, concentration of compound required to increase SIRT1 activity by 50% over control)” value was “B (EC1.5 1-25 μM)” and the “TRP MAX RESP (percent maximum fold activation relative to control)” value was “A (Fold activation ≥150%)”. With Cc1nc(C(=O)N[C@H](C)C(F)(F)F)nc2c1N1CC[C@@H](C1)N2C(=O)Nc1cc(OC[C@H](O)CO)ccn1 [Example 1, (8S)—N9-(4-((R)-2,3-dihydroxypropoxy)pyridin-2-yl)-4-methyl-N2-((R)-1,1,1-trifluoropropan-2-yl)-7,8-dihydro-5,8-methanopyrimido[4,5-b][1,4]diazepine-2,9(6H)-dicarboxamide] the “TRP Activity (EC1.5, concentration of compound required to increase SIRT1 activity by 50% over control)” value was “A (EC1.5<1 μM)” and the “TRP MAX RESP (percent maximum fold activation relative to control)” value was “A (Fold activation ≥150%)”. With Cc1nc(-c2cccc(C(F)(F)F)c2)nc2c1N1CCC[C@@H](C1)N2C(=O)Nc1nccc(OC[C@@H](O)CO)n1 [Example 112, (9S)—N-(4-((S)-2,3-dihydroxypropoxy)pyrimidin-2-yl)-4-methyl-2-(3-(trifluoromethyl)phenyl)-8,9-dihydro-6H-5,9-methanopyrimido[4,5-b][1,4]diazocine-10(7H)-carboxamide] the “TRP Activity (EC1.5, concentration of compound required to increase SIRT1 activity by 50% over control)” value was “A (EC1.5<1 μM)” and the “TRP MAX RESP (percent maximum fold activation relative to control)” value was “A (Fold activation ≥150%)”. C[C@@H](NC(=O)c1ncc2c(n1)N(C(=O)Nc1cccc(OC[C@H](O)CO)n1)[C@H]1CCCN2C1)C(F)(F)F [Example 78, (9S)—N10-(6-((R)-2,3-dihydroxypropoxy)pyridin-2-yl)-N2-((R)-1,1,1-trifluoropropan-2-yl)-8,9-dihydro-6H-5,9-methanopyrimido[4,5-b][1,4]diazocine-2,10(7H)-dicarboxamide] was tested, and the “TRP Activity (EC1.5, concentration of compound required to increase SIRT1 activity by 50% over control)” value was “B (EC1.5 1-25 μM)” and the “TRP MAX RESP (percent maximum fold activation relative to control)” value was “A (Fold activation ≥150%)”. Cc1ccc2c(NC(=O)N3c4nc(C(=O)NC(CO)C(F)(F)F)ncc4N4CCC[C@H]3C4)n[nH]c2n1 (single isomer, unassigned) [Example 66] was tested, and the “TRP Activity (EC1.5, concentration of compound required to increase SIRT1 activity by 50% over control)” value was “A (EC1.5<1 μM)” and the “TRP MAX RESP (percent maximum fold activation relative to control)” value was “A (Fold activation ≥150%)”. With O=C(Nc1nccc(OC[C@H](O)CO)n1)N1c2nc(-c3cccc(C(F)(F)F)c3)ncc2N2CC[C@H]1C2 [Example 26, (8S)—N-(4-((R)-2,3-dihydroxypropoxy)pyrimidin-2-yl)-2-(3-(trifluoromethyl)phenyl)-7,8-dihydro-5,8-methanopyrimido[4,5-b][1,4]diazepine-9(6H)-carboxamide] the “TRP Activity (EC1.5, concentration of compound required to increase SIRT1 activity by 50% over control)” value was “B (EC1.5 1-25 μM)” and the “TRP MAX RESP (percent maximum fold activation relative to control)” value was “A (Fold activation ≥150%)”. With Cc1nc(-c2cccc(C(F)(F)F)c2)nc2c1N1CC[C@@H](C1)N2C(=O)Nc1nccc(OC[C@H](O)CO)n1 [Example 56, (8S)—N-(4-((R)-2,3-dihydroxypropoxy)pyrimidin-2-yl)-4-methyl-2-(3-(trifluoromethyl)phenyl)-7,8-dihydro-5,8-methanopyrimido[4,5-b][1,4]diazepine-9(6H)-carboxamide] the “TRP Activity (EC1.5, concentration of compound required to increase SIRT1 activity by 50% over control)” value was “B (EC1.5 1-25 μM)” and the “TRP MAX RESP (percent maximum fold activation relative to control)” value was “A (Fold activation ≥150%)”. O=C(Nc1ncc(OC[C@H](O)CO)cn1)N1c2nc(-c3cccc(C(F)(F)F)c3)ncc2N2CC[C@H]1C2 [Example 41, (8S)—N-(5-((R)-2,3-dihydroxypropoxy)pyrimidin-2-yl)-2-(3-(trifluoromethyl)phenyl)-7,8-dihydro-5,8-methanopyrimido[4,5-b][1,4]diazepine-9(6H)-carboxamide] was tested, and the “TRP Activity (EC1.5, concentration of compound required to increase SIRT1 activity by 50% over control)” value was “B (EC1.5 1-25 μM)” and the “TRP MAX RESP (percent maximum fold activation relative to control)” value was “A (Fold activation ≥150%)”. For Cc1nc(-c2cccc(C(F)(F)F)c2)nc2c1N1CC[C@@H](C1)N2C(=O)Nc1ccnc(OC[C@@H](O)CO)c1 [Example 57, (8S)—N-(2-((S)-2,3-dihydroxypropoxy)pyridin-4-yl)-4-methyl-2-(3-(trifluoromethyl)phenyl)-7,8-dihydro-5,8-methanopyrimido[4,5-b][1,4]diazepine-9(6H)-carboxamide], the “TRP Activity (EC1.5, concentration of compound required to increase SIRT1 activity by 50% over control)” value was “B (EC1.5 1-25 μM)” and the “TRP MAX RESP (percent maximum fold activation relative to control)” value was “A (Fold activation ≥150%)”. O=C(NC1CC1)N1c2nc(-c3cccc(C(F)(F)F)c3)ncc2N2CC[C@H]1C2 [Example 15, (8S)—N-cyclopropyl-2-(3-(trifluoromethyl)phenyl)-7,8-dihydro-5,8-methanopyrimido[4,5-b][1,4]diazepine-9(6H)-carboxamide] was tested, and the “TRP Activity (EC1.5, concentration of compound required to increase SIRT1 activity by 50% over control)” value was “A (EC1.5<1 μM)” and the “TRP MAX RESP (percent maximum fold activation relative to control)” value was “A (Fold activation ≥150%)”. In the case of Cc1nc(-c2cccc(C(F)(F)F)c2)nc2c1N1CC[C@@H](C1)N2C(=O)Nc1nccc(OC[C@@H](O)CO)n1 [Example 47, (8S)—N-(4-((S)-2,3-dihydroxypropoxy)pyrimidin-2-yl)-4-methyl-2-(3-(trifluoromethyl)phenyl)-7,8-dihydro-5,8-methanopyrimido[4,5-b][1,4]diazepine-9(6H)-carboxamide], the “TRP Activity (EC1.5, concentration of compound required to increase SIRT1 activity by 50% over control)” value is reported as “B (EC1.5 1-25 μM)” and the “TRP MAX RESP (percent maximum fold activation relative to control)” value is reported as “A (Fold activation ≥150%)”. In the case of O=C(NCC(F)(F)F)c1ncc2c(n1)N(C(=O)Nc1ccccn1)[C@H]1CCCN2C1 [Example 62, (9S)—N10-(pyridin-2-yl)-N2-(2,2,2-trifluoroethyl)-8,9-dihydro-6H-5,9-methanopyrimido[4,5-b][1,4]diazocine-2,10(7H)-dicarboxamide], the “TRP Activity (EC1.5, concentration of compound required to increase SIRT1 activity by 50% over control)” value is reported as “A (EC1.5<1 μM)” and the “TRP MAX RESP (percent maximum fold activation relative to control)” value is reported as “A (Fold activation ≥150%)”.
